Data as given in patent US12485114B2, “Materials and methods useful to induce cancer cell death via methuosis or autophagy or a combination thereof” (The University of Toledo, priority 2017, dated 2025).

Tests used:
Assay in all cases: Morphological assessment of vacuolization
Assay type in all cases: cell-based
U-251 (glioblastoma) = tested on: U-251 (glioblastoma)
HCT-116 (colon cancer) = tested on: HCT-116 (colon cancer)
Description: The methuophagy inducing activities of BAPT-27 were also prominent in different colon cancer cell lines with different genetic profiles. […] (FIG. 42). However, the vacuoles formation was not prominent in normal epithelial colon cells (CRL-1459). (FIG. 42).

[1] = tested on: BT-20 (triple negative breast cancer)

Measured: vacuolization

Cc1[nH]c2ccccc2c1-c1nn2c(-c3ccncc3)nnc2s1 [BAPT-36]
dose dependent vacuolization: U-251 (glioblastoma) | HCT-116 (colon cancer) | [1]
